Reference: patent US11339417B2, “Amplifier system and controls for dielectrophoretic tracking in microfluidic devices” (University of Virginia Patent Foundation, priority 2014, dated 2022)
“And” between values parts separate entries of the source, which are not always exact repeats. Identical values can stand only once.

Tests used:
[1] = system: C. difficile VPI11186 (non-toxigenic, NTCD); test: Dielectrophoretic (DEP) characterization of C. difficile NTCD strain after vancomycin treatment; format: cell-based, Clostridium difficile
Procedure: (§1) Bacteria strains preparation. II three C. difficile strains were purchased from ATCC. The bacteria were cultured in brain heart infusion (BHI) broth (BD BBL Brain Heart Infusion) at 37° C. overnight under anaerobic condition before further antibiotic treatment or dielectrophoretic experiments. 250 μL of the overnight cultured bacteria suspension and 750 μL of the BHI with vancomycin (Novaplus) or without vancomycin for the control groups were mixed in Eppendorf tubes and incubated at 37° C. for 4 hours or 24 hours. The vancomycin concentration for VPI10463 (high-toxigenic, HTCD) was 2 mg/mL and 1 mg/mL for ATCC630 (low-toxigenic, LTCD) and VPI11186 (non-toxigenic, NTCD). […]
(§2) Dielectrophoretic characterization of C. difficile. […] The trajectory of the unlabeled C. difficile of each strain type was observed under this field, as high frame per second movies to quantify the DEP velocity. For experiments within mixed C. difficile samples, the trapped microbials were released and analyzed with the immunoassay to confirm toxigenicity. […]
(§3) FIGS. 2a and 2b show the electrode-less device with external electrodes (1 cm apart) to initiate localized microbial trapping in the constriction region. […] In this manner, as per prior work^33, the translational velocity under the DEP trapping force is measured for ˜20 individual microbial cells to quantify the DEP spectra. […]

[2] = system: C. difficile VPI10463 (high-toxigenic, HTCD); test: Toxicity enzyme-linked immunosorbent assay, total toxin (A/B) production; format: cell-based, Clostridium difficile
Procedure: Toxicity enzyme-linked immunosorbent assay. Total toxin (A/B) production was measured using the C. difficile TOX A/B II kit (Tech-Lab) according to the manufacturer's instructions. Culture supernatants were collected at 0, 4 and 24 hours by centrifugation at 3500 rcf for 5 min and stored at −20° C. The supernatants of the VPI110463 strain were diluted 1 to 20, while the supernatants of the VPI11186 strain were undiluted. Each specimen was run in duplicate. Total toxin levels were determined by measuring A450 under a 96 well plate spectrophotometry. The A450 number at each time point (4 hours and 24 hours) of each strain at each condition was normalized to its 0 hour time point.
(§4) In order to evaluate the sensitivity of DEP methods versus the current state of the art, we benchmark the DEP velocity data for HTCD and NTCD C. difficile strains after various levels of antibiotic treatment versus conventional diagnostic measures for the loss of C. difficile functionality, such as toxin production and growth rate values. To enable the comparison of DEP data across the range of C. difficile strains, we choose a frequency of 1 MHz, since all strains show some level of pDEP before and after antibiotic treatment. For measurements of alteration in toxin production level and growth rate of C. difficile strains after antibiotic treatment, it is necessary to culture the microbial cells with the antibiotic over a period of 4-24 hours, to enable sufficient sensitivity for the measurements. […] Furthermore, the results after antibiotic treatment for a particular period of time are compared against their respective values on untreated microbials for the same period of culture time (this control value for each treatment time is indicated as “Un-0”, “Un-4” or “Un-24” in FIGS. 15c-15e).

[3] = system: C. difficile ATCC630 (low-toxigenic, LTCD); test: Dielectrophoretic (DEP) characterization of C. difficile LTCD strain after vancomycin treatment; format: cell-based, Clostridium difficile; conditions: vancomycin 1 mg/mL, untreated 500 kHz
Procedure: as §1, §2, §3

[4] = system: C. difficile VPI10463 (high-toxigenic, HTCD); test: Growth measurement (OD600), HTCD strain; format: cell-based, Clostridium difficile
Procedure: (§5) Growth measurement. 250 μL of the overnight cultured bacteria suspension and 750 μL of the BHI broth, with or without vancomycin were mixed in Eppendorf tubes. The optical density at a wavelength of 600 nm (OD600) of the mixed bacteria suspensions, measured by Spectrophotometry (Eppendorf Biophotometer) before incubation, was indexed as the “0 hour” time point. The OD600 number at later time points (4 and 24 hours) for respective strain at each condition was normalized to its 0 hour point.
as §4

[5] = system: C. difficile VPI10463 (high-toxigenic, HTCD); test: Dielectrophoretic (DEP) characterization of C. difficile HTCD strain after vancomycin treatment; format: cell-based, Clostridium difficile
Procedure: Bacteria strains preparation. II three C. difficile strains were purchased from ATCC. The bacteria were cultured in brain heart infusion (BHI) broth (BD BBL Brain Heart Infusion) at 37° C. overnight under anaerobic condition before further antibiotic treatment or dielectrophoretic experiments. 250 μL of the overnight cultured bacteria suspension and 750 μL of the BHI with vancomycin (Novaplus) or without vancomycin for the control groups were mixed in Eppendorf tubes and incubated at 37° C. for 4 hours or 24 hours. The vancomycin concentration for VPI10463 (high-toxigenic, HTCD) was 2 mg/mL and 1 mg/mL for ATCC630 (low-toxigenic, LTCD) and VPI11186 (non-toxigenic, NTCD). Prior to the dielectrophoresis experiments, the BHI broth was replaced with 8.8% sucrose water and re-adjusted with BHI broth to optimize the medium conductivity 105±5% mS/m for enabling DEP-based distinction of C. difficile strains from mixed samples. All three strains were confirmed to be viable within this altered BHI media over the timeframe of the DEP experiments, as per the colony forming unit (CFU) assay.
as §2, with “difficile. The experimental setup has been described in our prior work. Briefly, Standard PDMS (Poly-di-methyl-siloxane) micro-molding methods were used to micro-fabricate channels with sharp lateral constrictions (1000 μm to 15 μm).” for “difficile.”
as §3

[6] = system: C. difficile VPI11186 (non-toxigenic, NTCD); test: Growth measurement (OD600), NTCD strain; format: cell-based, Clostridium difficile
Procedure: as §5, §4

[7] = system: Cryptosporidium parvum oocysts; test: Excystation of oocysts after disinfection treatment; format: cell-based; conditions: oocysts treated with 100 mg L^−1 for 4 hours; untreated 89.5%
Procedure: For treatment with silver nanoparticles (AgNPs), the animal infectivity experiment was done after the oocysts were treated with 100 mg L^−1 proteinate capped AgNPs (Argenol) (˜15 nm) for 4 hours.
After each disinfection treatment, the oocysts were treated with 10% bleach (Bleach-Rite) for 30 minutes in a micro-centrifuge tube at room temperature, followed by vortexing every 10 minutes. The suspension was incubated in a microfluidic chamber with a glass cover-slip for an hour, for real-time recording of the excystation; i.e. release of sporozoites from the oocyst. The excystation was examined by inverted microscopy using 63× oil immersion phase and DIC objectives. […] The percentage of the excystation was calculated as: (# of excysted oocytsl # of total oocyst)×100.^29 For mouse model infectivity studies,^12 all mice were malnourished for a period of 13 days before experiments. For every six mice fed with the oocysts for each treatment, three other mice were fed with untreated oocysts as positive control.

[8] = system: Cryptosporidium parvum oocysts; test: Dielectrophoretic characterization of oocysts (DEP tracking, single shell model fit); format: cell-based; conditions: 100 mg L^−1 for 4 hours
[9] = 4 hours of vancomycin treatment
[10] = 24 hours of vancomycin treatment

| Structure (SMILES) | DEP crossover frequency after vancomycin treatment ([1]; NTCD strain, vancomycin 1 mg/mL, untreated 900 kHz) | DEP velocity after vancomycin treatment ([1]; NTCD, 1 MHz, 4 hours of vancomycin treatment, untreated 16 μm/s) | Difference in toxin production level versus the control (Un-4) [2, 9] | Relative toxin production (normalized to 0 hour) [2, 9] | Difference in toxin production level versus the control (Un-24) [2, 10] | Relative toxin production (normalized to 0 hour) [2, 10] | DEP crossover frequency after vancomycin treatment [3] | Growth rate reduction [4, 9] | Relative growth rate (OD600 normalized to 0 hour) [4, 9] | Difference in growth rate versus the control (Un-24) [4, 10] | Relative growth rate (OD600 normalized to 0 hour) [4, 10] | DEP crossover frequency after vancomycin treatment ([5]; HTCD / hypervirulent TCD strain, vancomycin 2 mg/mL, untreated 300 kHz or 400 kHz) | DEP velocity after vancomycin treatment ([5]; HTCD, 1 MHz, 4 hours of vancomycin treatment, untreated 30.7 μm/s) | DEP behavior at 400 kHz of vancomycin treated cells ([5]; HTCD, 400 kHz, untreated HTCD shows pDEP) | Difference in growth rate versus the untreated sample (Un-4) [6, 9] | Relative growth rate (OD600 normalized to 0 hour) [6, 9] | Difference in growth rate versus the untreated sample (Un-24) [6, 10] | Relative growth rate (OD600 normalized to 0 hour) [6, 10] | Excystation rate [7] | DEP response of treated versus untreated oocysts at 100 kHz and at 400 kHz [8] |
| --- | --- | --- | --- | --- | --- | --- | --- | --- | --- | --- | --- | --- | --- | --- | --- | --- | --- | --- | --- | --- |
| CN[C@H](CC(C)C)C(=O)N[C@H]1C(=O)N[C@@H](CC(N)=O)C(=O)N[C@H]2C(=O)N[C@H]3C(=O)N[C@H](C(=O)N[C@H](C(=O)O)c4cc(O)cc(O)c4-c4cc3ccc4O)[C@H](O)c3ccc(c(Cl)c3)Oc3cc2cc(c3O[C@@H]2O[C@H](CO)[C@@H](O)[C@H](O)[C@H]2O[C@H]2C[C@](C)(N)[C@H](O)[C@H](C)O2)Oc2ccc(cc2Cl)[C@H]1O [vancomycin] | 600 kHz | ~7 μm/s | 0.55 | 1.05 times | 7.5 | small reduction | 300 kHz | minimal growth rate reduction | 1.51 times | 2.2 | 1.61 times | 600 kHz and 900 kHz | 7.6 μm/s | some residual level of nDEP and nDEP | 0.74 | 1.1 times | 3.3 | 1.05 times | – | – |
| O=[N+]([O-])[O-].[Ag+] [AgNO3, silver nitrate] | – | – | – | – | – | – | – | – | – | – | – | – | – | – | – | – | – | – | 71.4% and 70% | not significantly altered |
